From ChEMBL document CHEMBL1821670, “Synthesis and in vitro biological evaluation of carbonyl group-containing analogues for σ1 receptors” (J Med Chem, 2011)

What was measured:
[1] = Displacement of [3H]-DTG from sigma 2 receptor in rat liver membrane homogenates after 2 hrs by liquid scintillation counting; assay type: cell membranes
[2] = molecular target: Sigma non-opioid intracellular receptor 1 (Cavia porcellus, UniProt Q60492); assay: Displacement of (+)-[3H]pentazocine from sigma 1 receptor in guinea pig brain membrane homogenates after 90 mins by liquid scintillation counting; assay type: cell membranes
[3] = molecular target: T1, Vesicular acetylcholine transporter (Homo sapiens, UniProt Q16572); assay: Displacement of (-)-[3H]vesamicol from human VAChT expressed in rat PC12 A123.7 cells after 20 hrs; assay type: cell-based, PC-12
T1 sequence (Q16572 whole entry): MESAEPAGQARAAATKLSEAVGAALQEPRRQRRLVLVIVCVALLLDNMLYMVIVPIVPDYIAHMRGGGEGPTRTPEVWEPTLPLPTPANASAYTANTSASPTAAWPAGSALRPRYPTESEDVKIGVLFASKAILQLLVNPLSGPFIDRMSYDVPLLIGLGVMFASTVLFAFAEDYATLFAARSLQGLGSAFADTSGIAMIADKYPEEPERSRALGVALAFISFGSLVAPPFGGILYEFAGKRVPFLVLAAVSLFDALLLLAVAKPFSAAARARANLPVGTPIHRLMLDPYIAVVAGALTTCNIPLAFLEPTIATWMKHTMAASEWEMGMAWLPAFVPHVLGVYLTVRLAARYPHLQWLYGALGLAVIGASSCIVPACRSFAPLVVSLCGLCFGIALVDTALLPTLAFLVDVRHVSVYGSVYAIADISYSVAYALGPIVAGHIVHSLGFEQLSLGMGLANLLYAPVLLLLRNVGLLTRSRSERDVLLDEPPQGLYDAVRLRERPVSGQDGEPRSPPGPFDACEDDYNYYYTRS

[4] = Selectivity ratio of Ki for sigma 1 receptor in guinea pig brain membrane homogenates to Ki for sigma 2 receptor in rat liver membrane homogenates; assay type: cell membranes
[5] = Selectivity ratio of Ki for sigma 1 receptor in guinea pig brain membrane homogenates to Ki for human VAChT; assay type: cell membranes

Sigma non-opioid intracellular receptor 1, sequence (Q60492 whole entry): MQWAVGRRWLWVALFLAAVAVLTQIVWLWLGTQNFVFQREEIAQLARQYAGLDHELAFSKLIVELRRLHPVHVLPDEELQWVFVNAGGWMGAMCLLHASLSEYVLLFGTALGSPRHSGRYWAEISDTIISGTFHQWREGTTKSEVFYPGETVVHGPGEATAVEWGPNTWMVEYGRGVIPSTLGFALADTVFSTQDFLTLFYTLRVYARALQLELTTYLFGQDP

SMILES	Ki [1] [nM]	Ki [3] [nM]	Ratio Ki [4]	Ratio Ki [5]	Ki [2] [nM]
Cc1ccc(C2CCN([C@@H]3CCCC[C@H]3O)CC2)cc1	42.4	22.9			8.1
COc1ccc(CCN2CCN(CCCc3ccccc3)CC2)cc1OC	242				
O[C@@H]1CCN(Cc2cccc(I)c2)C[C@H]1N1CCC(c2ccccc2)CC1	190				92
O=C(c1ccc(F)cc1)C1CCN([C@H]2CCN(C(=O)c3ccc(F)cc3)C[C@@H]2O)CC1 (relative stereo)	8640		2.7	1.1	
O[C@@H]1CCCC[C@H]1N1CCC(c2ccccc2)CC1 [VESAMICOL]	346				73.8

Now from value to compound, other results behind:

Ki [1] [nM]	Ki [3] [nM]	Ratio Ki [4]	Ratio Ki [5]	SMILES	Ki [2] [nM]
35.9				O[C@@H]1CCN(Cc2ccc(F)cc2)C[C@H]1N1CCC(c2ccccc2)CC1	
13000		11	0.2	O=C(c1ccc(F)cc1)C1CCN([C@H]2CN(Cc3cccnc3)CC[C@@H]2O)CC1 (relative stereo)	
8540		41	0.17	COc1ccc(C(=O)C2CCN([C@H]3CN(Cc4ccccc4)CC[C@@H]3O)CC2)cc1 (relative stereo)	
17100				COc1ccc(C(=O)C2CCN([C@H]3CN(Cc4cccnc4)CC[C@@H]3O)CC2)cc1 (relative stereo)	
